Experimental data: patent US20250295143A1, “USE OF ALPHA LIPOIC ACID AS A FEED ADDITIVE FOR AQUATIC ANIMALS” (DSM IP ASSETS B.V., priority 2018, published 2025)

Legend:
Salmon Alfa Virus (SAV) = test: Mortality in Atlantic salmon fry following SAV challenge by cohabitation (Pancreas Disease); format: in vivo; conditions: for survival compared to control diet fed fish / Relative Percent Survival (RPS): Study 2, SAV challenge; for end mortality compared to control: Study 3, all three SAV challenge trials
Procedure: (§1) The first study evaluated dietary alpha-lipoic acid (LA) at 500 mg/kg compared to control basal diet fed fish. Pre-feeding experimental diets for ˜5 weeks, growing from ˜0.2 g to ˜0.5 g in 4 replicate tanks per diet. Water temperature at 12° C.±1° C. Min. 30 fish per diet (tank). Disease challenge by cohabitation with fish infected with Salmon Alfa Virus (SAV).
(§2) This was intended to transmit the infection to the test groups leading to clinical Pancreas Disease (PD). The challenge lasted for 9.5 weeks (˜2 g), mortality recorded daily.
The second study evaluated dietary alpha-lipoic acid at 3 doses 125, 250 and 500 mg/kg compared to control basal diet fed fish for resistance to virus disease (PD). The experiment was carried out as described for the first study.
In this study three separate virus challenge trials evaluated dietary alpha-lipoic acid at 3 doses 250, 500 and 1000 mg/kg compared to control basal diet fed fish for resistance to virus disease (PD). The experiment was carried out as described for the first study.

IPN [1] = test: Mortality in Atlantic salmon following IPN challenge; format: in vivo; conditions: A. salmon
Procedure: as §1, §2
The fourth study evaluated dietary alpha-lipoic acid at 3 doses 500, 750 and 1000 mg/kg compared to control basal diet fed fish for resistance to virus disease (IPN). The experiment was carried out as described for the first study.

IPN [2] = test: Performance (growth reduction) of Atlantic salmon following IPN challenge; format: in vivo
Procedure: This study evaluated dietary alpha-lipoic acid at 3 doses 500, 750 and 1000 mg/kg compared to control basal diet fed fish for performance after disease (IPN) challenge in atlantic salmon and was carried out in succession of the fifth study by weighting the fish and comparing the challenged LA and control fed fish with the unchallenged control fed fish.

phagocytes = test: Oxidative burst of phagocytes from rainbow trout fed LA; format: cell-based; conditions: rainbow trout fed 125, 250 and 500 mg/kg for 4 weeks; any treatment group vs control
Procedure: (§3) Rainbow trout were fed for 4 weeks with graded levels of LA (125, 250 and 500 mg/kg) compared to basal control diet fed fish. A range of functional immune assays of tissues/cells obtained at the end of the feeding period were conducted to investigate the possible mode of action observed in the disease challenge studies.
The capacity of Oxidative burst of phagocytes was assayed to assess anti-oxidation or pro-oxidation activity, as widely reported for use of LA (Kutter et al., 2014).

lymphocytes = test: Apoptosis of lymphocytes from rainbow trout fed LA; format: cell-based
Procedure: as §3
The apoptosis pathway (programmed cell death) was investigated by assaying the ability of lymphocytes to prevent apoptosis occurring following incubation with Campto, a chemical stimulator of apoptosis. […] This level of reduction in apoptosis is quite remarkable.

[3] = Feed conversion ratio (FCR) in rainbow trout; format: in vivo; conditions: for (Cumulative) Feed conversion ratio (FCR), Feed as fed basis (kg)/weight gain (kg), Mean: rainbow trout
Procedure: This study evaluated dietary alpha-lipoic acid at 3 doses 250, 500 and 1000 mg/kg compared to control basal diet fed fish for feed conversion ratio. Rainbow trout with an initial weight around 50 g were fed for ˜6 weeks with graded levels of LA compared to basal control diet fed fish in 4 replicate tanks per diet with 50 fish per tank. The fish were fed automatically and daily with an excess of experimental diets with regard to feeding instructions for control basal diet and weighted every two weeks. Excess feed was removed daily.

Noda Virus (VNN) = test: Mortality in Sea Bass fry following VNN (Noda virus) challenge by cohabitation; format: in vivo
Procedure: The seventh study evaluated dietary alpha-lipoic acid (LA) at 250, 500 and 750 mg/kg compared to control basal diet fed fish in Sea Bass fry. Pre-feeding experimental diets for 5-6 weeks, growing from ˜0.7 g to ˜1.4 g. Water temperature at 25° C. 133 fish per diet (tank). Disease challenge by cohabitation with fish infected with Noda Virus (VNN). This was intended to transmit the infection to the test groups. Mortality was recorded daily.

[4] = test system: white spot syndrome virus (WSSV); test: Mortality in shrimp following WSSV challenge; format: in vivo
Procedure: The fourth study evaluated dietary alpha-lipoic acid at 650 mg/kg compared to control basal diet fed shrimp for resistance to white spot syndrome virus disease (WSSV). The experiment was carried out under standard conditions for shrimp. Pre-feeding experimental diets for ˜4 weeks. Mortality was recorded daily.

## O=C(O)CCCCC1CCSS1 (stereo not drawn) [alpha-lipoic acid]
Salmon Alfa Virus (SAV); Study 1, 500 mg/kg feed, A. salmon fry, SAV challenge 9.5 weeks
  relative percent survival (RPS) compared to control diet: 63%
Salmon Alfa Virus (SAV); 125 mg/kg
  survival compared to control diet fed fish: no observed effect
Salmon Alfa Virus (SAV); 250 mg/kg
  survival compared to control diet fed fish: tendency for improved survival but this was not statistically significant
Salmon Alfa Virus (SAV); 125 ppm in diet vs control, A. salmon fry
  Relative Percent Survival (RPS): −17%
Salmon Alfa Virus (SAV); 250 ppm in diet vs control, A. salmon fry
  Relative Percent Survival (RPS): 8%
Salmon Alfa Virus (SAV); 500 ppm in diet vs control, A. salmon fry
  Relative Percent Survival (RPS): 34%
Salmon Alfa Virus (SAV); 500 ppm in diet vs control, A. salmon fry, listed as LA
  Relative Percent Survival (RPS): 34%
Salmon Alfa Virus (SAV); high dose 1000 mg/kg
  end mortality compared to control: significantly reduced
Salmon Alfa Virus (SAV); medium dose 500 mg/kg
  end mortality compared to control: significantly reduced
IPN [1]; 500 ppm in diet vs control
  RPS: 7.1%
IPN [1]; 500 ppm in diet vs control, listed as LA
  RPS: 7%
IPN [1]; 500 ppm in diet
  Mean Survival: 62.0%
  Mean mortality: 38.0%
IPN [1]; 750 ppm in diet vs control
  RPS: 27.6%
IPN [1]; 750 ppm in diet vs control, listed as LA
  RPS: 28%
IPN [1]; 750 ppm in diet
  Mean Survival: 70.4%
  Mean mortality: 29.6%
IPN [1]; 1000 ppm in diet vs control
  RPS: −1.0%
IPN [1]; 1000 ppm in diet vs control, listed as LA
  RPS: −1%
IPN [1]; 1000 ppm in diet
  Mean Survival: 58.7%
  Mean mortality: 41.3%
IPN [2]; 500 mg/kg
  performance compared to challenged control diet fed fish: performed better
IPN [2]; 750 mg/kg
  performance compared to challenged control diet fed fish: significantly better performance
IPN [2]; 1000 mg/kg
  performance compared to challenged control diet fed fish: did not perform significantly better
phagocytes
  extracellular or intracellular oxidative burst of phagocytes: no significant difference
lymphocytes; no Campto used, LA treatment groups, not significant
  basal apoptosis activity of lymphocytes: trend for lower basal apoptosis activity
lymphocytes; rainbow trout fed 500 mg/kg for 4 weeks
  apoptotic cells (lymphocytes) after incubation with Campto: significant reduction
lymphocytes; rainbow trout fed graded levels 125, 250 and 500 mg/kg for 4 weeks
  reduction of apoptotic cells (lymphocytes) after incubation with Campto: clear dose response
[3]; AL 250, period 0-15 days
  (Cumulative) Feed conversion ratio (FCR), Feed as fed basis (kg)/weight gain (kg), Mean: 0.65
[3]; AL 250, period 0-30 days
  (Cumulative) Feed conversion ratio (FCR), Feed as fed basis (kg)/weight gain (kg), Mean: 0.67
[3]; AL 250, period 0-44 days
  (Cumulative) Feed conversion ratio (FCR), Feed as fed basis (kg)/weight gain (kg), Mean: 0.67
[3]; AL 500, period 0-15 days
  (Cumulative) Feed conversion ratio (FCR), Feed as fed basis (kg)/weight gain (kg), Mean: 0.66
[3]; AL 500, period 0-30 days
  (Cumulative) Feed conversion ratio (FCR), Feed as fed basis (kg)/weight gain (kg), Mean: 0.67
[3]; AL 500, period 0-44 days
  (Cumulative) Feed conversion ratio (FCR), Feed as fed basis (kg)/weight gain (kg), Mean: 0.68
[3]; AL 1000, period 0-15 days
  (Cumulative) Feed conversion ratio (FCR), Feed as fed basis (kg)/weight gain (kg), Mean: 0.65
[3]; AL 1000, period 0-30 days
  (Cumulative) Feed conversion ratio (FCR), Feed as fed basis (kg)/weight gain (kg), Mean: 0.67
[3]; AL 1000, period 0-44 days
  (Cumulative) Feed conversion ratio (FCR), Feed as fed basis (kg)/weight gain (kg), Mean: 0.68
[3]; rainbow trout fed 250, 500 and 1000 mg/kg for ~6 weeks
  feed conversion ratios compared to control diet fed fish: improved
Noda Virus (VNN); 250 ppm in diet
  Mean Survival: 84.2%
  Mean mortality: 15.8%
Noda Virus (VNN); 250 ppm in diet vs control
  RPS: 59.6%
Noda Virus (VNN); 250 ppm in diet vs control, listed as lipoic acid
  RPS: 60%
Noda Virus (VNN); 500 ppm in diet
  Mean Survival: 86.7%
  Mean mortality: 13.3%
Noda Virus (VNN); 500 ppm in diet vs control
  RPS: 66.0%
Noda Virus (VNN); 500 ppm in diet vs control, listed as lipoic acid
  RPS: 66%
Noda Virus (VNN); 750 ppm in diet
  Mean Survival: 78.3%
  Mean mortality: 21.7%
Noda Virus (VNN); 750 ppm in diet vs control
  RPS: 44.7%
Noda Virus (VNN); 750 ppm in diet vs control, listed as lipoic acid
  RPS: 45%
[4]; 650 ppm in diet
  Mean Survival: 30.0%
  Mean mortality: 70.0%
[4]; 650 ppm in diet vs control
  RPS: 8.7%
